This is an account of results in patent US9206201B2, “Boronic acid bearing liphagane compounds as inhibitors of P13K-α and/or β” (COUNCIL OF SCIENTIFIC & INDUSTRIAL RESEARCH, priority 2012, dated 2015).

The IC50 is the concentration that gives 50% inhibition.

Where two headings read alike, the source gives them in different places.

Assay [1] deals with PI3Kα (Homo sapiens (Human), UniProt P42336). The experiment in a line: PI3K inhibition assay (PI3 Kinase activity/inhibitor assay kit), PI3Kα. In kind it is biochemical. The settings on record: read-out: IC50 against PI3Kα.
Assay [2] concerns the target PI3Kβ (Homo sapiens (Human), UniProt P42338). Briefly: PI3K inhibition assay (PI3 Kinase activity/inhibitor assay kit), PI3Kβ. Format: biochemical. Here is the method:
PI3K inhibition assay (PI3K Assay (Emmanuelle M, Huang […] et al. Targeting Protein Translation in Human Non-Small Cell Lung Cancer via Combined MEK and Mammalian Target of Rapamycin Suppression. Cancer Res 67:(23). (2007).) was carried out by PI3 Kinase activity/inhibitor assay kit, where PI3 kinase reaction was set up in Glutathione-coated strips/plate for inhibitor reaction. Kinase and inhibitors were pre-incubated for 10 minutes prior to the addition of PIP2 substrate. 5 μL of 5× kinase reaction buffer were added in each well followed by the further addition of 5 μL/well of PIP2 substrate. Then distilled H2O was added to each well so as to make up a final volume of 25 μL/well. Incubation was done at rt for 1 hour which was followed by washing the wells 3 times with 200 μL of 1×TBST per well and then 2 times with 200 μL of IX TBS per well. Then 100 μL of the Substrate TMB per well was added and then to keep for colour development in the dark for 5-20 minutes. However, appearance of the blue color to avoid over-development were monitored. 100 μL of the stop solution per well was used to stop the reaction. Readings were recorded at 450 nm. The IC50 value of a drug measures the effectiveness of a compound in inhibiting biological or biochemical function. […]

The target of assay [3] is PI3K δ (Homo sapiens (Human), UniProt O00329). The experiment in a line: PI3K inhibition assay, PI3K δ isoform. Format: biochemical. Here is the method: (§1) PI3K inhibition assay (PI3K Assay (Emmanuelle M, Huang Y, Yan H G et al. Targeting Protein Translation in Human Non-Small Cell Lung Cancer via Combined MEK and Mammalian Target of Rapamycin Suppression. Cancer Res 67:(23). (2007).) was carried out by PI3 Kinase activity/inhibitor assay kit, where PI3 kinase reaction was set up in Glutathione-coated strips/plate for inhibitor reaction. Kinase and inhibitors were pre-incubated for 10 minutes prior to the addition of PIP2 substrate. 5 μL of 5× kinase reaction buffer were added in each well followed by the further addition of 5 μL/well of PIP2 substrate. Then distilled H2O was added to each well so as to make up a final volume of 25 μL/well. Incubation was done at rt for 1 hour which was followed by washing the wells 3 times with 200 μL of 1×TBST per well and then 2 times with 200 μL of IX TBS per well. Then 100 μL of the Substrate TMB per well was added and then to keep for colour development in the dark for 5-20 minutes. However, appearance of the blue color to avoid over-development were monitored. 100 μL of the stop solution per well was used to stop the reaction. Readings were recorded at 450 nm.

The target of assay [4] is PI3K γ (Homo sapiens (Human), UniProt P48736). Briefly: PI3K inhibition assay, PI3K γ isoform. In kind it is biochemical. On the procedure: as §1
The test system of assay [5] is caco-2. Briefly: MTT cytotoxic assay, colon (caco-2) cell line. More on the design: species or system human. The following applies: 48 h, read-out: cell based IC50 (MTT). The source says:
(§2) The MTT assay (MTT Assay (Legrier M E, Yang C P, Yan H G et al. Targeting protein translation in human non small lung cancer via combined MEK and mammalian target of rapamycin suppression. Cancer Res 67:11300-8(2007).) is useful for measuring the effect of a wide range of compounds on the in vitro growth of either normal or cancer cell lines. The assay was set up in a 96-well, flat-bottomed polystyrene microtiter plate. 3-5000 cells were suspended per well in appropriate growth medium, and the cells were added to replicate wells (triplicates were preferred). It was preferable to add the cells to the required number of wells in the plate prior to adding the drugs or the test agents. After the cells were added to the plate, it was placed on the incubator for overnight incubation, while the agents to be tested were being prepared. After overnight incubation drugs or test compounds were added at defined concentrations to each set of replicate wells and incubated for 48 hrs in CO2 incubator. Most of these compounds were dissolved in dimethyl sulfoxide (DMSO) for the final addition. After 48 hr incubation, diluted the MTT stock solution ([…]) with an equal volume of tissue culture medium and added 20 μl of this solution directly to each well with a multichannel pipette. […] A standard micro plate reader with adjustable wavelength across the visible spectrum was used. […]
On the technique in general: Tetrazolium dyes change colour on reduction, which living cells bring about.

Assay [6] has as its system human cancer cell lines. The experiment in a line: In vitro cell line based anticancer activity, human cancer cell lines. The following applies: 10 μM.
Text: as §2

For assay [7], the system named is pAkt (Ser 473) in CACO-2 cells. Briefly: Immunofluorescence microscopic analysis of pAKT (serine 473). In kind it is cell-based, human. The settings on record: 4 μM, 24 hr. On the procedure: For immunofluorescence microscopic analysis, 4×10^4 CACO-2 cells/ml were seeded on 18-mm coverslips in 6-well plates, one day before experiment. […] Following treatment, cells were washed in PBS, followed by fixation in absolute methanol at −20° C. for 5 min^19. The fixed cells were blocked with 10% goat serum in PBS for 20 min at room temperature to eliminate non-specific binding of secondary antibody. Cells were incubated with polyclonal rabbit pAKT (serine 473) primary antibody (1:100 in 0.5% BSA in PBS; Santa Cruz Biotechnology) for 1 h at 25° C. in moist chamber, then washed and incubated with secondary antibody. The cells were washed and incubated for 45 min with a Texas red-conjugated goat antirabbit antibody (1:500 in 0.5% BSA in PBS; Santa Cruz Biotechnology) at 25° C. The coverslips were mounted on glass slides with 4′,6-diamidino-2-phenylindole-containing ProLong Gold Antifade mounting medium (Invitrogen) and visualized by fluorescence microscope (Olympus, IX81) under an Olympus 60× oil immersion objective lens. The negative controls were also used in which incubation of cells with primary antibody was omitted.
Results: Phosphorylation (activation) of Akt is associated with protection of cells from apoptosis^20 (K. Nicholson, N. Anderson. 2002. The protein kinase B/Akt signaling pathway in human malignancy. Cell signal 14: 381-395). […]

Assay [8] concerns caco-2 colon human cancer cell line. The experiment in a line: Annexin-V apoptotic assay by flow cytometry. Format: cell-based. The settings on record: caco-2, under similar conditions, concentration not given. Here is the method: The cell death status was analysed using Annexin-V (Annexin-V apoptotic assay (Yunqing Li, FadilaGuessous, SherwinKwon, Manish Kumar. PTEN Has Tumor-Promoting Properties in the Setting of Gain-of-Function p53 Mutations, 2008 Cancer Res; 68: (6) (2008).) Flow cytometery. The experiment was performed using caco-2 colon human cancer cell line. Cells were seeded in 6 well plates at the concentration of 2×10^5 cells/ml/well. Plates were incubated in CO2 incubator for overnight. After overnight incubation test sample(s) were added at desired concentration, sparing wells for negative and positive control and incubated for 48 hrs. After 48 hr incubation, cell were trypsinized and separately transferred into 15 ml centrifuge tubes. Tubes were centrifuged at 3000 rpm for 5 min. The supernatant was discarded and pellet was resuspended in 1 ml filtered PBS and centrifuged at 2000 rpm for 5 min. After 5 mins supernatant was discarded and pellet was resuspended in […] of 1× binding buffer to make cell suspension. From this suspension, 100 μl of cells is transferred in falcon tube and then 10 μl of propidium iodide (PI) and 5 μl Annexin-V antibody were added and incubated for 30 min in dark. After 30 min incubation in dark, apoptosis were analysed by flow cytometer (BD Biosciences).
Overall, there was a concentration dependent net increase in late apoptotic cell population (FIG. 7).
In general terms: Flow cytometry measures light scatter and fluorescence of single cells or particles in a stream.

Assay [9] concerns caco-2, colon human cancer cell line. The experiment in a line: Cell cycle analysis by flow cytometry (propidium iodide). Format: cell-based. The settings on record: caco-2, under similar conditions, concentration not given. On the procedure:
Analysis (Cell cycle (Waxman D J, Schwartz P S, Harnessing apoptosis for improved anti-cancer gene therapy, Cancer Res. 63:8563-8572(2003).) of a population of cells replication state can be achieved by fluorescence labeling of the nuclei of cells in suspension and then analyzing the fluorescence properties of each cell in the population. The experiment was performed using caco-2, colon human cancer cell line. Cells were seeded in 6 well plates at the concentration of 3×10^5 cells/ml/well. Plate was incubated in CO2 incubator for overnight. After overnight incubation test sample(s) were added at desired concentration, sparing wells for negative and positive control and incubated for 24 hrs. After 24 hr incubation, cell were trypsinized along with test sample from each well was extracted using a micropippete and separately transferred into 15 ml centrifuge tubes. Tubes were centrifuged at 3000 rpm for 5 min. […] Reading was taken on flow cytometer (BD Biosciences).
Results: Cell cycle is the life cycle of a cell. […] In the present study, the effect of compound E on the DNA content by cell cycle phase distribution was assessed by using colon (caco-2) cell line. […] Cells (2×10^6/ml/6-well plate), exposed to different concentrations of compound E were stained with propidium iodide (PI) to determine DNA fluorescence and cell cycle phase distribution. […]

Sequence of PI3Kα (P42336 whole entry, looked up): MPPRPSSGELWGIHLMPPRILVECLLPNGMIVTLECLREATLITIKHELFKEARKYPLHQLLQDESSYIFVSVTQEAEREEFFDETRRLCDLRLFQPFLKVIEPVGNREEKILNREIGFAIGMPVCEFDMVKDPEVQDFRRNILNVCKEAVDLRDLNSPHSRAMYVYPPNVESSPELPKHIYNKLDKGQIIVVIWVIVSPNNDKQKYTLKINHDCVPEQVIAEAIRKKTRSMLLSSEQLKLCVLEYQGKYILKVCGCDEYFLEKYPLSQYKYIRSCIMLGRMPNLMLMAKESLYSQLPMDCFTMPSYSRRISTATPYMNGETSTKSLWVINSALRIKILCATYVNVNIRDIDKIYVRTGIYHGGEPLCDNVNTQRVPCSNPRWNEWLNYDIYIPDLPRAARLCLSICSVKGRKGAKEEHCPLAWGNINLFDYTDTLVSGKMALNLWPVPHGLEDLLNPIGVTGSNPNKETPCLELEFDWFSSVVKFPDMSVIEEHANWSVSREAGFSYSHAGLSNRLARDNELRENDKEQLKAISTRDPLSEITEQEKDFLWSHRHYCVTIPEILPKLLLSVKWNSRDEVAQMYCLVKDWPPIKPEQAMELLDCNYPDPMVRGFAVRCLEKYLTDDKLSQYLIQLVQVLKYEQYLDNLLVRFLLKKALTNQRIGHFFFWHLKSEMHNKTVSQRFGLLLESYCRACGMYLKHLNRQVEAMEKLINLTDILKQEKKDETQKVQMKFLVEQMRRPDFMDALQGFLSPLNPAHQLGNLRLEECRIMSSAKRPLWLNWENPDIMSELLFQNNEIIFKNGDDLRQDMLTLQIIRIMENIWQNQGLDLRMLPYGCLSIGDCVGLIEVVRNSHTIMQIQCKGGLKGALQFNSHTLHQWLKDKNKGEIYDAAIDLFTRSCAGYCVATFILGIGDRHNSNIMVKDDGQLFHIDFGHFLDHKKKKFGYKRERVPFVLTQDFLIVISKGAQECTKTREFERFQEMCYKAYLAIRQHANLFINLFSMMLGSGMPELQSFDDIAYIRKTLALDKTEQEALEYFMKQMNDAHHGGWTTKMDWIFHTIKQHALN
Sequence of PI3Kα (P27986 whole entry partner, looked up): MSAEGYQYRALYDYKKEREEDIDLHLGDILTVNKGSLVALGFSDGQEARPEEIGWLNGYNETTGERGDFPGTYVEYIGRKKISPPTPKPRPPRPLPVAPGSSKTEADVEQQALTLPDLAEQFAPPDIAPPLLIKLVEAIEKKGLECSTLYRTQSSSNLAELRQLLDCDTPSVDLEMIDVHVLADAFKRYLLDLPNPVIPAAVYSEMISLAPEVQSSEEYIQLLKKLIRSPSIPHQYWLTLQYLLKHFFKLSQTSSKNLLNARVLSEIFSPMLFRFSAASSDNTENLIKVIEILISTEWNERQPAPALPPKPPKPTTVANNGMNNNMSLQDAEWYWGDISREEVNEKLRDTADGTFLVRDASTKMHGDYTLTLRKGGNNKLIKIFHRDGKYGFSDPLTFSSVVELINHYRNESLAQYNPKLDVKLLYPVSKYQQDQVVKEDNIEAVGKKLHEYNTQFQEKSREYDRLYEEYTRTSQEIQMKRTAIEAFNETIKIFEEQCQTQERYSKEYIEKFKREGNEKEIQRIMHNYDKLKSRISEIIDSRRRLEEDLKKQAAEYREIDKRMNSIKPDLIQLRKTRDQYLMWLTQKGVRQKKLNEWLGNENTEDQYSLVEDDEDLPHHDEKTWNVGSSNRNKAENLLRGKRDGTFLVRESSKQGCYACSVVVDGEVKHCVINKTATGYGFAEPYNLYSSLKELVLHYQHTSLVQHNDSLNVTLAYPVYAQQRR
Sequence of PI3Kβ (P42338 whole entry): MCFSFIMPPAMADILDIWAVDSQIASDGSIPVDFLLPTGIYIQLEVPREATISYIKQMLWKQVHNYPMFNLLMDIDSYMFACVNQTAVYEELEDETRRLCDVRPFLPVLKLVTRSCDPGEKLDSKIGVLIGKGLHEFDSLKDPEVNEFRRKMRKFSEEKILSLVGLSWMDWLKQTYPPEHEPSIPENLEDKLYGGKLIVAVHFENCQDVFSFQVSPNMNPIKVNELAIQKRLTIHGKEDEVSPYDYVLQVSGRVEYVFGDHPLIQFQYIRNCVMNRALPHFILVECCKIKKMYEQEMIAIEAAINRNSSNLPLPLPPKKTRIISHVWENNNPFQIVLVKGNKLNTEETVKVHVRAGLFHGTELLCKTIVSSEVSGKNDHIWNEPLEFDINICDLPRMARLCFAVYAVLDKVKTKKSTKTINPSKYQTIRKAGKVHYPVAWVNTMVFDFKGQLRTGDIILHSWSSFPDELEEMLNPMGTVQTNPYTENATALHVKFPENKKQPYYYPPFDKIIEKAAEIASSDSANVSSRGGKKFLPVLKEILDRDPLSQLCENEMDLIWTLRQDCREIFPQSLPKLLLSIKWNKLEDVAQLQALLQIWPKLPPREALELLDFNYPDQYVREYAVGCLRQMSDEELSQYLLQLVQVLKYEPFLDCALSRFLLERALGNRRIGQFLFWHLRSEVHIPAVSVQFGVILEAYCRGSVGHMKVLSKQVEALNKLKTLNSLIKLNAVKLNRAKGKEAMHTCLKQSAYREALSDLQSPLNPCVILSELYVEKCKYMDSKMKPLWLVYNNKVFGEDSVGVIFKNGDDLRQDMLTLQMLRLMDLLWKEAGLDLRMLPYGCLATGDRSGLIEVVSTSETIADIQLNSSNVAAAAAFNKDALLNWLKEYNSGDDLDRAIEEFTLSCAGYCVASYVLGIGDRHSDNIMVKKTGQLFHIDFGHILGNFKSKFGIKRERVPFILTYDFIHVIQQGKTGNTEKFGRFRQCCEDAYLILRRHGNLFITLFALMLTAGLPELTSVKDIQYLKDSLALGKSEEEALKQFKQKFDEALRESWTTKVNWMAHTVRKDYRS
Sequence of PI3Kβ (P27986 whole entry partner): as the sequence (P27986 whole entry partner, looked up) above
Sequence of PI3K δ (O00329 whole entry, canonical isoform): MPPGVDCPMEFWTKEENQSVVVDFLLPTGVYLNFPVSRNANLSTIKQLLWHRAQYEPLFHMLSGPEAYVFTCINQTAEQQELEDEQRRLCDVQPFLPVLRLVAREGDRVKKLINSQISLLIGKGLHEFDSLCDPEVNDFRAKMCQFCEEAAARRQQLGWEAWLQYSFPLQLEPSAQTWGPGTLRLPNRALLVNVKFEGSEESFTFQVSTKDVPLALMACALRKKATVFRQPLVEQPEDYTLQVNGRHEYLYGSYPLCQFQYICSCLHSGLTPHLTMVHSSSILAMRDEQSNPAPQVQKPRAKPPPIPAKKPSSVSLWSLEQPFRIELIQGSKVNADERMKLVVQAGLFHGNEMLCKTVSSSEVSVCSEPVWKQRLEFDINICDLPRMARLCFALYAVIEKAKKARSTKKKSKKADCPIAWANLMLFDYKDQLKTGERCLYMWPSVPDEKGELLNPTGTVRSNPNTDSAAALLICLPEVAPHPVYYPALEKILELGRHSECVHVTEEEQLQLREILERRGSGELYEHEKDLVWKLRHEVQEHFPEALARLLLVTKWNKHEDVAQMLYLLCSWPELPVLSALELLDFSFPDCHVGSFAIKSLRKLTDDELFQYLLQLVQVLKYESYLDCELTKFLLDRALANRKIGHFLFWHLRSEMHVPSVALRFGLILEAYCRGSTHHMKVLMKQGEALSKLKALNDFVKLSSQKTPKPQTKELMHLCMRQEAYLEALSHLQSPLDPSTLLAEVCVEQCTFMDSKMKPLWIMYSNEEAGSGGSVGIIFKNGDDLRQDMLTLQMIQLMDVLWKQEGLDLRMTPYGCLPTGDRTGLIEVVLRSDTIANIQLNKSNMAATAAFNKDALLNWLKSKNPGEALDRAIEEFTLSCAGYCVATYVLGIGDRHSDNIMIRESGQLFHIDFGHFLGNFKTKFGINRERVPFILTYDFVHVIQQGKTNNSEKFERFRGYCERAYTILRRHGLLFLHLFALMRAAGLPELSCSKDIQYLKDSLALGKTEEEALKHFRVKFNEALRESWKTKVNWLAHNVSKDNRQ
Sequence of PI3K δ (P27986 whole entry partner, canonical isoform): as the sequence (P27986 whole entry partner, looked up) above
Sequence of PI3K γ (P48736 whole entry, canonical isoform): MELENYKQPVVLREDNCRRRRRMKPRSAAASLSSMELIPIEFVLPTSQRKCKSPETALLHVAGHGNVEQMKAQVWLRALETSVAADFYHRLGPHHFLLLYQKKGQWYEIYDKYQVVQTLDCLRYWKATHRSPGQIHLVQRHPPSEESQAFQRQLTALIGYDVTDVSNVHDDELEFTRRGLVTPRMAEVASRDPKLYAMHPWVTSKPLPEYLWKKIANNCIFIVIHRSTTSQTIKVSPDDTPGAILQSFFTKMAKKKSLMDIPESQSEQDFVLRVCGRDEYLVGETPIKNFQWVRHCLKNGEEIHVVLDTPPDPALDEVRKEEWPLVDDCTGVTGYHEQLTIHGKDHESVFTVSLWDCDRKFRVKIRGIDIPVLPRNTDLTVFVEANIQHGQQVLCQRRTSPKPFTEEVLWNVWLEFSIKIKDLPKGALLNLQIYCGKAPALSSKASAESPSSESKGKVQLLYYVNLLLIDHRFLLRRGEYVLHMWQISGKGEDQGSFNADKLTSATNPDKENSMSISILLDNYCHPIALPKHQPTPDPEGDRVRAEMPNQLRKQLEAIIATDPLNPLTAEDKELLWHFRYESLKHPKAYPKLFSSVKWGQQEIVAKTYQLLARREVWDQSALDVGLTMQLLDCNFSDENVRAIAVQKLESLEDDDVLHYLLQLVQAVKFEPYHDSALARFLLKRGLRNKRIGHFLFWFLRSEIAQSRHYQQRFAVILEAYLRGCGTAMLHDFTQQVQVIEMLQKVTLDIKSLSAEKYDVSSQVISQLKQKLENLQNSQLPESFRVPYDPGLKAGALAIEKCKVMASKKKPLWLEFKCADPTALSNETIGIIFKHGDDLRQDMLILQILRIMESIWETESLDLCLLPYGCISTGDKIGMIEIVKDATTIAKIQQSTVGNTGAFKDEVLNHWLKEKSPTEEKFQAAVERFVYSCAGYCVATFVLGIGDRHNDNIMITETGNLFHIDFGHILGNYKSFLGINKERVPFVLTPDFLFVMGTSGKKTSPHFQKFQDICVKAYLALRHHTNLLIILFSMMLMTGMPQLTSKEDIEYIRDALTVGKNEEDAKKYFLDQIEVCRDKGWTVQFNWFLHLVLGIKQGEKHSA

Consider `CC1(C)CCCC2(C)c3c(oc4c(B(O)O)c(O)c(O)cc34)CCC12` (centres unmarked) [Compound AZ], for which the IC50 stood at 0.023 µM in assay [1], 5.7 µM in [2] (read-out: PI3K (IC50) β), 303 µM in [3] and 85.4 µM in assay [4].

Consider `C=C(CC/C=C(\C)CCC=C(C)C)c1cc2cc(OC)c(OC)cc2o1` [Compound A], for which the IC50 in assay [1] is 0.14 µM; in [2] (read-out: IC50 against PI3Kβ) it was 0.1 µM; in [5], 2.4 µM. The optimal growth inhibition in assay [6] was over 74%.

As to Liphagal, in [7], the “effect on pAkt (Ser 473)” value is “inhibition of pAKT”. The “percentage of cells in late apoptotic phase” value in [8] is 42.7%. The “percentage of cells in sub-G0 phase” value in [9] is 64.9%.
